Reference: PubChem BioAssay (NCI)
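Five compound concentrations were applied to cells in 96-well plates for 48 hours; endpoints were derived by simple linear interpolation of the resulting dose-response curve. At the TGI there is no net growth.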

How the values were obtained:
Assay in all cases: NCI tumour cell line growth inhibition, 48 h
LXFL 529 NSCLC = test system: LXFL 529 NSCLC
SNB-78 CNS = test system: SNB-78 CNS
KM20L2 colon = test system: KM20L2 colon
XF 498 CNS = test system: XF 498 CNS

SMILES | TGI (LXFL 529 NSCLC) [µM] | TGI (SNB-78 CNS) [µM] | TGI (KM20L2 colon) [µM] | TGI (XF 498 CNS) [µM]
CC1=NN(C(=O)c2ccc(Cl)cc2)C(=O)/C1=C/c1cccc([N+](=O)[O-])c1 | > 100 | > 100 | > 100 | > 100
O=C1c2ccccc2C(=O)C1C(c1ccc([N+](=O)[O-])cc1)C1C(=O)c2ccccc2C1=O | > 100 | > 100 | > 100 | > 100
CC(=O)Oc1ccccc1C(=O)C1c2cccc(O)c2C(=O)c2c(O)cccc21 | 4.03 | > 24.8 | 5.57 | 0.506
COC(=O)C(Cc1nc2ccc(Cl)cc2[nH]c1=O)C(=O)C(=O)Nc1ccccc1[N+](=O)[O-] (stereo not drawn) | > 100 | > 100 | > 100 | > 100
CCO[C@@H]1C2C=CC(C2)[C@H]1[N+](=O)[O-] (stereo partly drawn) | > 100 | > 100 | > 100 | > 100
Cc1cccc(C)c1NC(=O)CCCC(=O)C1CCC/C1=N\NC(=O)C(=O)NN (stereo not drawn) | > 100 | > 100 | > 100 | > 100
COc1ccc2cc3n(c2c1)CCc1cc(OC)c(OC)cc1-3 | > 100 | > 100 | > 100 | > 100
[O-]c1on[n+]2c1c(Nc1ccc(Cl)cc1)nc1ccccc12 | > 100 | > 100 | > 100 | > 100
O=C1CCC2(c3ccccc3)Nc3cc(Cl)ccc3N12 (stereo not drawn) | > 100 | > 100 | > 100 | 56.6
FC(F)(F)c1ccc2nc(Nc3ccc(Cl)c(Cl)c3)c(-c3ccccc3)nc2c1 | > 100 | > 100 | > 100 | > 100
CCOC(=O)/C(C#N)=C1\N[C@H](C(=O)OCC)CO1 | > 100 | > 100 | > 100 | 78.1
O=c1cccccc1NCCCCCCCCCNc1cccccc1=O | 24.4 | 82.4 | 77.5 | 20
